# Measurements: ChEMBL document CHEMBL1201862, “PubChem BioAssay data set” (2004)
#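 Briefly, cells in 96-well plates were exposed to five compound concentrations for 48 h, and endpoints were estimated by linear interpolation. At the GI50, growth is halved.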 The source made the active and inactive calls. Rule as the data show it: active = GI50 up to about 1.1 µM and inactive = higher.
# What was measured:
# Assay in all cases: NCI anticancer screen, dose series, 48 h
# [1] = system: A498
# [2] = system: A549
# [3] = system: CAKI-1
# [4] = system: CCRF-CEM
# [5] = system: COLO 205
# [6] = system: DLD-1
# [7] = system: DMS-114
# [8] = system: DMS-273
# [9] = system: EKVX
# [10] = system: HCC 2998
# [11] = system: HCT-116
# [12] = system: HCT-15
# [13] = system: HL-60
# [14] = system: HOP-18
# [15] = system: HOP-62
# [16] = system: HOP-92
# [17] = system: HT-29
# [18] = system: IGROV-1
# [19] = system: K562
# [20] = system: KM-20L2
# [21] = system: KM12
# [22] = system: LOX IMVI
# [23] = system: M19-MEL
# [24] = system: MCF7
# [25] = system: MOLT-4
# [26] = system: Malme-3M
# [27] = system: NCI-H226
# [28] = system: NCI-H23
# [29] = system: NCI-H460
# [30] = system: NCI-H522
# [31] = system: NCI/ADR-RES
# [32] = system: OVCAR-3
# [33] = system: OVCAR-4
# [34] = system: OVCAR-5
# [35] = system: OVCAR-8
# [36] = system: RPMI-8226
# [37] = system: RXF 393
# [38] = system: SF-268
# [39] = system: SF-295
# [40] = system: SF-539
# [41] = system: SK-MEL-28
# [42] = system: SK-MEL-2
# [43] = system: SK-MEL-5
# [44] = system: SK-OV-3
# [45] = system: SN12C
# [46] = system: SNB-19
# [47] = system: SNB-75
# [48] = system: SNB-78
# [49] = system: SW-620
# [50] = system: U-251
# [51] = system: UACC-257
# [52] = system: UACC-62
# [53] = system: UO-31
# [54] = system: XF498
structure (smiles),measurement,setting,value
O=C(O)C1CCC(=O)N1S(=O)(=O)c1ccccc1 (stereo not drawn),GI50,[1],> 100 µM (inactive)
same,GI50,[2],> 100 µM (inactive)
same,GI50,[3],> 100 µM (inactive)
same,GI50,[4],> 100 µM (inactive)
same,GI50,[5],> 100 µM (inactive)
same,GI50,[6],> 100 µM (inactive)
same,GI50,[7],> 100 µM (inactive)
same,GI50,[8],> 100 µM (inactive)
same,GI50,[9],> 100 µM (inactive)
same,GI50,[10],> 100 µM (inactive)
same,GI50,[11],> 100 µM (inactive)
same,GI50,[12],> 100 µM
same,GI50,[13],> 100 µM (inactive)
same,GI50,[14],> 100 µM (inactive)
same,GI50,[15],> 100 µM (inactive)
same,GI50,[16],99.1 µM (inactive)
same,GI50,[17],> 100 µM (inactive)
same,GI50,[18],> 100 µM (inactive)
same,GI50,[19],> 100 µM (inactive)
same,GI50,[20],> 100 µM (inactive)
same,GI50,[21],> 100 µM (inactive)
same,GI50,[22],> 100 µM (inactive)
same,GI50,[23],> 100 µM (inactive)
same,GI50,[24],> 100 µM (inactive)
same,GI50,[25],> 100 µM (inactive)
same,GI50,[26],> 100 µM (inactive)
same,GI50,[27],> 100 µM (inactive)
same,GI50,[28],> 100 µM (inactive)
same,GI50,[29],> 100 µM (inactive)
same,GI50,[30],> 100 µM (inactive)
same,GI50,[31],> 100 µM (inactive)
same,GI50,[32],> 100 µM (inactive)
same,GI50,[33],> 100 µM (inactive)
same,GI50,[34],> 100 µM (inactive)
same,GI50,[35],> 100 µM (inactive)
same,GI50,[36],> 100 µM (inactive)
same,GI50,[37],> 100 µM (inactive)
same,GI50,[38],> 96.2 µM (inactive)
same,GI50,[39],> 100 µM (inactive)
same,GI50,[40],> 100 µM (inactive)
same,GI50,[41],> 100 µM (inactive)
same,GI50,[42],> 100 µM (inactive)
same,GI50,[43],> 100 µM (inactive)
same,GI50,[44],> 100 µM (inactive)
same,GI50,[45],> 100 µM (inactive)
same,GI50,[46],> 100 µM (inactive)
same,GI50,[47],> 100 µM (inactive)
same,GI50,[48],> 100 µM (inactive)
same,GI50,[49],> 100 µM (inactive)
same,GI50,[50],> 100 µM (inactive)
same,GI50,[51],> 100 µM (inactive)
same,GI50,[52],> 100 µM (inactive)
same,GI50,[53],> 100 µM (inactive)
same,GI50,[54],> 100 µM (inactive)
O=c1oc2cc(O)ccc2c2oc3cc(O)ccc3c12 [COUMESTROL],GI50,[1],0.248 µM (active)
same,GI50,[2],43.1 µM (inactive)
same,GI50,[3],49.9 µM (inactive)
same,GI50,[4],8.81 µM (inactive)
same,GI50,[5],26 µM (inactive)
same,GI50,[6],62.5 µM (inactive)
same,GI50,[7],9.89 µM (inactive)
same,GI50,[8],54.7 µM (inactive)
same,GI50,[9],77.4 µM (inactive)
same,GI50,[10],53.6 µM (inactive)
same,GI50,[11],32.7 µM (inactive)
same,GI50,[12],54.5 µM
same,GI50,[13],6.93 µM (inactive)
same,GI50,[14],> 125 µM (inactive)
same,GI50,[15],16 µM (inactive)
same,GI50,[16],> 118 µM (inactive)
same,GI50,[17],49 µM (inactive)
same,GI50,[18],79.8 µM (inactive)
same,GI50,[19],74 µM (inactive)
same,GI50,[20],41 µM (inactive)
same,GI50,[21],111 µM (inactive)
same,GI50,[22],42.1 µM (inactive)
same,GI50,[23],92.7 µM (inactive)
same,GI50,[24],96.8 µM (inactive)
same,GI50,[25],13.8 µM (inactive)
same,GI50,[26],79.6 µM (inactive)
same,GI50,[27],4.18 µM (inactive)
same,GI50,[28],58.5 µM (inactive)
same,GI50,[29],38.6 µM (inactive)
same,GI50,[30],6.46 µM (inactive)
same,GI50,[31],108 µM (inactive)
same,GI50,[32],45.2 µM (inactive)
same,GI50,[33],83.9 µM (inactive)
same,GI50,[34],> 125 µM (inactive)
same,GI50,[35],70 µM (inactive)
same,GI50,[36],45.8 µM (inactive)
same,GI50,[37],54.1 µM (inactive)
same,GI50,[38],53.7 µM (inactive)
same,GI50,[39],76 µM (inactive)
same,GI50,[40],56.6 µM (inactive)
same,GI50,[41],> 125 µM (inactive)
same,GI50,[42],> 125 µM (inactive)
same,GI50,[43],9.91 µM (inactive)
same,GI50,[44],42.1 µM (inactive)
same,GI50,[45],13.2 µM (inactive)
same,GI50,[46],47.6 µM (inactive)
same,GI50,[47],94.8 µM (inactive)
same,GI50,[48],64.4 µM (inactive)
same,GI50,[49],59 µM (inactive)
same,GI50,[50],33.3 µM (inactive)
same,GI50,[51],87.9 µM (inactive)
same,GI50,[52],71.6 µM (inactive)
same,GI50,[53],48.3 µM (inactive)
same,GI50,[54],> 19.8 µM (inactive)
